{"source": "patent US20060015954A1", "about": "“GPR54 knock-out mammals and screening methods using them” (Paradigm Therapeutics Limited, priority 2002, published 2006)", "molecules": {"B1": {"name": "bHCG: beta human chorionic gonadotrophins (protein, UniProt P0DN86 21-165, looked up)", "Choriogonadotropin subunit …": "SKEPLRPRCRPINATLAVEKEGCPVCITVNTTICAGYCPTMTRVLQGVLPALPQVVCNYRDVRFESIRLPGCPRGVNPVVSYAVALSCQCALCRRSTTDCGGPKDHPLTCDDPRFQDSSSSKAPPPSLPSPSRLPGPSDTPILPQ"}}, "key": {"GPR54": {"biological_target": "GPR54 (Homo sapiens, UniProt Q969F8)", "sequence (Q969F8 whole entry, species assumed)": "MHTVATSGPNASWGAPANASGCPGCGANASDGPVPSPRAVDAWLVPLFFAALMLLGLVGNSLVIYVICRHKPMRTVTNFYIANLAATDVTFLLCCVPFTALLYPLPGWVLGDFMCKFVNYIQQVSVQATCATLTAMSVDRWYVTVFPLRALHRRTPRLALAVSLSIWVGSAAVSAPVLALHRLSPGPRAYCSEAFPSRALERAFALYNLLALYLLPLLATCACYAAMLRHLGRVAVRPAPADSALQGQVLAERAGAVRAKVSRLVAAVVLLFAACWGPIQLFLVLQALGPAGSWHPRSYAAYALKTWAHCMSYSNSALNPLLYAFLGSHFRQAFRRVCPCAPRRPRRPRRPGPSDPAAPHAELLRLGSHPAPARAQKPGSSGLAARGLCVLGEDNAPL", "conditions": "Lee et al 1999; Ohtaki et al 2001; cited from earlier work"}, "oxytocin secretion": {"system": "oxytocin secretion", "conditions": "intravenous injection, female rat; Kotani et al 2001; cited from earlier work"}, "melanomas": {"system": "melanomas", "conditions": "mice with melanomas injected in footpads, administration by perfusion; Ohtaki et al 2001; cited from earlier work"}, "[1]": {"system": "B16-L16 melanoma cells transfected with the GPR54 receptor", "conditions": "cited from earlier work"}, "[2]": {"system": "FSH secretion from the pituitary", "assay": "Serum FSH assay after administration of exogenous GnRH", "format": "in vivo, mice", "procedure": "(§1) 3) Administration of Exogenous GnRH and Effects on FSH and LH Secretion from the Pituitary\n(§2) Method: 25 ng of GnRH peptide was injected 4 times in 30 min intervals and the animals killed to collect blood and pituitary 30 min after last injection. All mice were killed between 11 am-1 pm.\n(§3) Animal groups: 6 WT injected with just PBS (control), 6 WT injected with GnRH made in PBS and 6 HP injected with GnRH/PBS. All WT animals were staged and used at dioestrous (end of LH and FSH surge). All mice aged 2-4 months. This was repeated for LH and FSH measurements.\nSerum FSH assay: There is a 1.9-fold increase in FSH in serum of WT injected with GnRH compared to those injected with just PBS."}, "[3]": {"system": "LH secretion from the pituitary", "assay": "Serum LH assay after administration of exogenous GnRH", "format": "in vivo, mice", "procedure": "as §1, §2, §3\nSerum LH assay: There is a 5-fold increase in LH in serum of WT injected with GnRH compared to those injected with just PBS."}, "[4]": {"system": "LH levels in the pituitary", "assay": "Depletion of LH levels in the pituitary after stimulation by exogenous GnRH", "format": "in vivo, mice", "conditions": "mutants, FIG. 15b", "procedure": "as §2, §3\nMeasurement of the depletion of LH levels in the pituitary after stimulation by exogenous was measured. […] There were no deleterious effects of knocking out the gene in the mutants."}, "[5]": {"system": "ovaries (ovulation of mature oocytes)", "assay": "Exogenous gonadotrophins: ovulation in GPR54 mutant females", "format": "in vivo, mice", "conditions": "1000 iu PMS followed two days later by 1000 iu bHCG, n=6", "description": "This is consistent with the hypothesis that GPR54 receptors and ligands are acting at the level of the pituitary hypothalamic axis and not the end-organs."}, "[6]": {"conditions": "HP (GPR54 knockout) mice injected with GnRH against WT injected with just PBS"}}, "note": "Like-named read-outs stand apart in the source and are kept apart here. Ends that are not written are not given here.", "data": [{"molecule": "galanin-like peptide: galanin-like peptide reported not to activate GPR54 (APAHRGRGGWTLNSAGYLLGPVLHLPQMGDQDGKRETALEILDLWKAIDGLPYSHPPQPS; Galanin-like peptide; UniProt Q9UBC7 25-84, looked up)", "values": [{"measurement": "activation of GPR54", "setting": "GPR54", "value": "neither galanin nor galanin-like peptide activate GPR54"}]}, {"molecule": "kisspeptin-10: kisspeptin peptide injected intravenously in female rat (YNWNSFGLRF; ends and bridges not checked; UniProt Q15726 112-121, looked up)", "values": [{"measurement": "oxytocin secretion", "setting": "oxytocin secretion", "value": "stimulates oxytocin secretion"}]}, {"molecule": "metastin: 54 amino acid kisspeptin, product of the Kiss-1 gene, natural ligand of GPR54 (GTSLSPPPESSGSPQQPGLSAPHSRQIPAPQGAVLVQREKDLPNYNWNSFGLRF; ends and bridges not checked; UniProt Q15726 68-121, looked up)", "values": [{"measurement": "metastases", "setting": "melanomas", "value": "significantly decreased metastases"}, {"measurement": "cell motility", "setting": "[1]; B16-L16 melanoma cells transfected with the GPR54 receptor", "value": "inhibits motility"}, {"measurement": "cell motility", "setting": "[1]; mock-transfected B16-L16 melanoma cells", "value": "not in mock-transfected cells"}]}, {"molecule": "GnRH: gonadotropin-releasing hormone peptide injected in PBS (QHWSYGLRPG; ends and bridges not checked; UniProt P01148 24-33, looked up)", "values": [{"measurement": "increase in FSH in serum", "setting": "[2]; [6]", "value": 1.7, "unit": "fold"}, {"measurement": "increase in FSH in serum", "setting": "[2]; WT mice injected with GnRH (25 ng x 4 at 30 min intervals) compared to WT injected with just PBS", "value": 1.9, "unit": "fold"}, {"measurement": "increase in LH in serum", "setting": "[3]; [6]", "value": 5, "unit": "fold"}, {"measurement": "increase in LH in serum", "setting": "[3]; WT mice injected with GnRH compared to WT injected with just PBS", "value": 5, "unit": "fold"}, {"measurement": "LH levels in the pituitary after stimulation", "setting": "[4]", "value": "corresponding depletion of LH levels in the pituitary"}]}, {"molecule": "B1", "values": [{"measurement": "mutant females with ovulation of mature oocytes", "setting": "[5]", "value": 50, "unit": "%"}]}]}
